From patent US20070049564A1 (Wyeth, priority 2005, published 2007)
Values after ≈ are worked out from the molar mass of the structure shown. Read-outs that look alike come from different tables or passages of the source.

What was measured:
E. coli GC 2236 = assay: MIC, broth microdilution; conditions: Escherichia coli
E. coli GC 2231 = assay: MIC, broth microdilution; conditions: Escherichia coli
E. coli GC 2232 = assay: MIC, broth microdilution; conditions: Escherichia coli
E. coli GC 2233 = assay: MIC, broth microdilution; conditions: Escherichia coli
E. coli GC 2234 = assay: MIC, broth microdilution; conditions: Escherichia coli
E. coli GC 2270 = assay: MIC, broth microdilution; conditions: Escherichia coli
E. coli GC 2271 = assay: MIC, broth microdilution; conditions: Escherichia coli
E. coli GC 3226 = assay: MIC, broth microdilution; conditions: Escherichia coli
E. coli GC 2203 = assay: MIC, broth microdilution; conditions: Escherichia coli
P. aeruginosa GC 2214 = assay: MIC, broth microdilution; conditions: Pseudomonas aeruginosa
S. aureus GC 6466 = assay: MIC, broth microdilution; conditions: Staphylococcus aureus
S. aureus GC 2216 = assay: MIC, broth microdilution; conditions: Staphylococcus aureus
S. aureus GC 6335 = assay: MIC, broth microdilution; conditions: Staphylococcus aureus
S. aureus GC 6469 = assay: MIC, broth microdilution; conditions: Staphylococcus aureus
E. faecalis GC 2265 = assay: MIC, broth microdilution; conditions: Enterococcus faecalis
E. faecium GC 4556 = assay: MIC, broth microdilution; conditions: Enterococcus faecium
E. faecium GC 2243 = assay: MIC, broth microdilution; conditions: Enterococcus faecium
S. pyogenes GC 4563 = assay: MIC, broth microdilution; conditions: Streptococcus pyogenes
Staph. = assay: Range of MIC for Staph. strains, including MRSA; conditions: Staphylococcus aureus

MIC (E. coli GC 2236; GC2236, read-out: MINIMAL INHIBITORY CONCENTRATION MIC, Human Serum): > 64 µg/mL | MIC (E. coli GC 2236; GC2236, read-out: MINIMAL INHIBITORY CONCENTRATION MIC, Mouse Serum): > 64 µg/mL | MIC (E. coli GC 2236; GC2236, read-out: MINIMAL INHIBITORY CONCENTRATION MIC, Water): > 64 µg/mL | MIC (E. coli GC 2231; GC2231, read-out: MINIMAL INHIBITORY CONCENTRATION MIC, Human Serum): > 64 µg/mL | MIC (E. coli GC 2231; GC2231, read-out: MINIMAL INHIBITORY CONCENTRATION MIC, Mouse Serum): > 64 µg/mL | MIC (E. coli GC 2231; GC2231, read-out: MINIMAL INHIBITORY CONCENTRATION MIC, Water): > 64 µg/mL | MIC (E. coli GC 2232; GC2232, read-out: MINIMAL INHIBITORY CONCENTRATION MIC, Human Serum): > 64 µg/mL | MIC (E. coli GC 2232; GC2232, read-out: MINIMAL INHIBITORY CONCENTRATION MIC, Mouse Serum): > 64 µg/mL | MIC (E. coli GC 2232; GC2232, read-out: MINIMAL INHIBITORY CONCENTRATION MIC, Water): > 64 µg/mL | MIC (E. coli GC 2233; GC2233, read-out: MINIMAL INHIBITORY CONCENTRATION MIC, Human Serum): > 64 µg/mL | MIC (E. coli GC 2233; GC2233, read-out: MINIMAL INHIBITORY CONCENTRATION MIC, Mouse Serum): > 64 µg/mL | MIC (E. coli GC 2233; GC2233, read-out: MINIMAL INHIBITORY CONCENTRATION MIC, Water): > 64 µg/mL | MIC (E. coli GC 2234; GC2234, read-out: MINIMAL INHIBITORY CONCENTRATION MIC, Human Serum): > 64 µg/mL | MIC (E. coli GC 2234; GC2234, read-out: MINIMAL INHIBITORY CONCENTRATION MIC, Mouse Serum): > 64 µg/mL | MIC (E. coli GC 2234; GC2234, read-out: MINIMAL INHIBITORY CONCENTRATION MIC, Water): > 64 µg/mL | MIC (E. coli GC 2270; GC2270, read-out: MINIMAL INHIBITORY CONCENTRATION MIC, Human Serum): > 64 µg/mL | MIC (E. coli GC 2270; GC2270, read-out: MINIMAL INHIBITORY CONCENTRATION MIC, Mouse Serum): > 64 µg/mL | MIC (E. coli GC 2270; GC2270, read-out: MINIMAL INHIBITORY CONCENTRATION MIC, Water): > 64 µg/mL | MIC (E. coli GC 2271; GC2271, read-out: MINIMAL INHIBITORY CONCENTRATION MIC, Human Serum): 64 µg/mL (≈ 99.4 µM) | MIC (E. coli GC 2271; GC2271, read-out: MINIMAL INHIBITORY CONCENTRATION MIC, Mouse Serum): 64 µg/mL (≈ 99.4 µM) | MIC (E. coli GC 2271; GC2271, read-out: MINIMAL INHIBITORY CONCENTRATION MIC, Water): > 64 µg/mL | MIC (E. coli GC 3226; GC3226, read-out: MINIMAL INHIBITORY CONCENTRATION MIC, Human Serum): > 64 µg/mL | MIC (E. coli GC 3226; GC3226, read-out: MINIMAL INHIBITORY CONCENTRATION MIC, Mouse Serum): > 64 µg/mL | MIC (E. coli GC 3226; GC3226, read-out: MINIMAL INHIBITORY CONCENTRATION MIC, Water): > 64 µg/mL | MIC (E. coli GC 2203; GC2203, read-out: MINIMAL INHIBITORY CONCENTRATION MIC, Human Serum): > 64 µg/mL | MIC (E. coli GC 2203; GC2203, read-out: MINIMAL INHIBITORY CONCENTRATION MIC, Mouse Serum): > 64 µg/mL | MIC (E. coli GC 2203; GC2203, read-out: MINIMAL INHIBITORY CONCENTRATION MIC, Water): > 64 µg/mL | MIC (P. aeruginosa GC 2214; GC2214, read-out: MINIMAL INHIBITORY CONCENTRATION MIC, Human Serum): > 64 µg/mL | MIC (P. aeruginosa GC 2214; GC2214, read-out: MINIMAL INHIBITORY CONCENTRATION MIC, Mouse Serum): > 64 µg/mL | MIC (P. aeruginosa GC 2214; GC2214, read-out: MINIMAL INHIBITORY CONCENTRATION MIC, Water): > 64 µg/mL | MIC (S. aureus GC 6466; GC6466, read-out: MINIMAL INHIBITORY CONCENTRATION MIC, Human Serum): 4 µg/mL (≈ 6.21 µM) | MIC (S. aureus GC 6466; GC6466, read-out: MINIMAL INHIBITORY CONCENTRATION MIC, Mouse Serum): 4 µg/mL (≈ 6.21 µM) | MIC (S. aureus GC 6466; GC6466, read-out: MINIMAL INHIBITORY CONCENTRATION MIC, Water): 8 µg/mL (≈ 12.4 µM) | MIC (S. aureus GC 2216; GC2216, read-out: MINIMAL INHIBITORY CONCENTRATION MIC, Human Serum): 2 µg/mL (≈ 3.11 µM) | MIC (S. aureus GC 2216; GC2216, read-out: MINIMAL INHIBITORY CONCENTRATION MIC, Mouse Serum): 2 µg/mL (≈ 3.11 µM) | MIC (S. aureus GC 2216; GC2216, read-out: MINIMAL INHIBITORY CONCENTRATION MIC, Water): 4 µg/mL (≈ 6.21 µM) | MIC (S. aureus GC 6335; GC6335, read-out: MINIMAL INHIBITORY CONCENTRATION MIC, Human Serum): 8 µg/mL (≈ 12.4 µM) | MIC (S. aureus GC 6335; GC6335, read-out: MINIMAL INHIBITORY CONCENTRATION MIC, Mouse Serum): 8 µg/mL (≈ 12.4 µM) | MIC (S. aureus GC 6335; GC6335, read-out: MINIMAL INHIBITORY CONCENTRATION MIC, Water): 8 µg/mL (≈ 12.4 µM) | MIC (S. aureus GC 6469; GC6469, read-out: MINIMAL INHIBITORY CONCENTRATION MIC, Human Serum): 2 µg/mL (≈ 3.11 µM) | MIC (S. aureus GC 6469; GC6469, read-out: MINIMAL INHIBITORY CONCENTRATION MIC, Mouse Serum): 2 µg/mL (≈ 3.11 µM) | MIC (S. aureus GC 6469; GC6469, read-out: MINIMAL INHIBITORY CONCENTRATION MIC, Water): 4 µg/mL (≈ 6.21 µM) | MIC (E. faecalis GC 2265; GC2265, read-out: MINIMAL INHIBITORY CONCENTRATION MIC, Human Serum): 4 µg/mL (≈ 6.21 µM) | MIC (E. faecalis GC 2265; GC2265, read-out: MINIMAL INHIBITORY CONCENTRATION MIC, Mouse Serum): 8 µg/mL (≈ 12.4 µM) | MIC (E. faecalis GC 2265; GC2265, read-out: MINIMAL INHIBITORY CONCENTRATION MIC, Water): 8 µg/mL (≈ 12.4 µM) | MIC (E. faecium GC 4556; GC4556, read-out: MINIMAL INHIBITORY CONCENTRATION MIC, Human Serum): 4 µg/mL (≈ 6.21 µM) | MIC (E. faecium GC 4556; GC4556, read-out: MINIMAL INHIBITORY CONCENTRATION MIC, Mouse Serum): 4 µg/mL (≈ 6.21 µM) | MIC (E. faecium GC 4556; GC4556, read-out: MINIMAL INHIBITORY CONCENTRATION MIC, Water): 4 µg/mL (≈ 6.21 µM) | MIC (E. faecium GC 2243; GC2243, read-out: MINIMAL INHIBITORY CONCENTRATION MIC, Human Serum): 2 µg/mL (≈ 3.11 µM) | MIC (E. faecium GC 2243; GC2243, read-out: MINIMAL INHIBITORY CONCENTRATION MIC, Mouse Serum): 2 µg/mL (≈ 3.11 µM) | MIC (E. faecium GC 2243; GC2243, read-out: MINIMAL INHIBITORY CONCENTRATION MIC, Water): 4 µg/mL (≈ 6.21 µM) | MIC (S. pyogenes GC 4563; GC4563, read-out: MINIMAL INHIBITORY CONCENTRATION MIC, Human Serum): 0.5 µg/mL (≈ 0.777 µM) | MIC (S. pyogenes GC 4563; GC4563, read-out: MINIMAL INHIBITORY CONCENTRATION MIC, Mouse Serum): 1 µg/mL (≈ 1.55 µM) | MIC (S. pyogenes GC 4563; GC4563, read-out: MINIMAL INHIBITORY CONCENTRATION MIC, Water): 2 µg/mL (≈ 3.11 µM) | MIC (Staph.; MRSA, read-out: Range of MIC, Staph (Mouse Serum)): 2 to 8 µg/mL (≈ 3.11 to 12.4 µM) | MIC (Staph.; MRSA, read-out: Range of MIC, Staph (Water)): 4 to 16 µg/mL (≈ 6.21 to 24.9 µM) | MIC (Staph.; read-out: Minimum inhibitory concentration (MIC), Staph (Human Serum)): 2 to 8 µg/mL (≈ 3.11 to 12.4 µM) | MIC (Staph.; read-out: Minimum inhibitory concentration (MIC), Staph (Water)): 4 to 16 µg/mL (≈ 6.21 to 24.9 µM)
SMILES: COC(=O)N(CC(=O)Nc1cc(N(C)C)c2c(c1O)C(=O)C1=C(O)[C@]3(O)C(=O)C(C(N)=O)=C(O)[C@@H](N(C)C)[C@@H]3C[C@@H]1C2)C(C)(C)C [Example 60, methyl 2-{[(5aR,6aS,7S,10aS)-9-(aminocarbonyl)-4,7-bis(dimethylamino)-1,8,10a,11-tetrahydroxy-10,12-dioxo-5,5a,6,6a,7,10,10a,12-octahydrotetracen-2-yl]amino}-2-oxoethyl(tert-butyl)carbamate]
